Measurements taken from patent US7173019B2, “Linked cyclitols and their polysulfated derivatives” (The Australian National University, priority 2001, dated 2007).
pIC50: −log10 of the molar value. In brackets after ≈: the same amount, converted by molar mass. Read-outs that look alike come from different tables or passages of the source.

Tests used:
[1] = molecular target: T1, human leukocyte Cathepsin G (Homo sapiens, UniProt P08311); assay: Cathepsin G inhibition, fluorogenic substrate, 96 well assay; assay type: biochemical; conditions: human leukocyte cathepsin G 100 ng, 37° C., 60 min, pH 6.6
T1 construct: human leukocyte Cathepsin G (100 ng protein); from tissue; host or cells: human leukocytes
T1 sequence (P08311 21-244): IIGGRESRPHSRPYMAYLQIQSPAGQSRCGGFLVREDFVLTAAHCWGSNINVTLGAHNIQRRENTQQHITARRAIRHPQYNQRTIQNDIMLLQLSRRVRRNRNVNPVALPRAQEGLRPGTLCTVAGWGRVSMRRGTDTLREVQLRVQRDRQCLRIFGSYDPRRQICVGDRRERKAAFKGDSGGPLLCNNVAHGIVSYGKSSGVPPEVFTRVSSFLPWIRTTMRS
Description: Cathepsin G activity was determined using a 96 well assay format in PVC microtitre U-bottom plates with activity determination by a fluorescence plate reader. Briefly, within a total incubation volume of 40 μl, human leukocyte Cathepsin G (100 ng protein) was added to a mixture of inhibitor and the fluorogenic substrate MeOSuc-ala-ala-pro-phe-AMAC in 50 mM-NaOAc buffer, pH 6.6 containing 50 mM NaCl and 0.1% (v/v) Brij 35. The mixture was incubated at 37° C. for 60 min, the reaction stopped by the addition of 40 μl of 250 mM acetic acid and the fluorescence determined with excitation at 360 nm and emitted light measured at 460 nm.
In this table, the linked cyclitol compound identifications are the same as those given in Section A above where the structures of the compounds are also given. With regard to the purity rating, a greater number of asterisks signifies a greater degree of purity with five asterisks signifying an essentially pure compound. The cathepsin G inhibition data are the concentrations of compounds required to inhibit the enzyme by 50%.

[2] = molecular target: T2, human platelet heparanase (Homo sapiens, UniProt Q9Y251); assay: Heparanase inhibition, 3H-radiolabelled HS cleavage assay; assay type: biochemical; conditions: for Relative inhibition (%): based on a comparison with heparin with 100% inhibition at 30 μg/ml; for EC50: heparanase inhibition
T2 construct: 10 ng of purified human platelet heparanase; from tissue; host or cells: human platelets
T2 sequence (Q9Y251 158-543 limits assumed): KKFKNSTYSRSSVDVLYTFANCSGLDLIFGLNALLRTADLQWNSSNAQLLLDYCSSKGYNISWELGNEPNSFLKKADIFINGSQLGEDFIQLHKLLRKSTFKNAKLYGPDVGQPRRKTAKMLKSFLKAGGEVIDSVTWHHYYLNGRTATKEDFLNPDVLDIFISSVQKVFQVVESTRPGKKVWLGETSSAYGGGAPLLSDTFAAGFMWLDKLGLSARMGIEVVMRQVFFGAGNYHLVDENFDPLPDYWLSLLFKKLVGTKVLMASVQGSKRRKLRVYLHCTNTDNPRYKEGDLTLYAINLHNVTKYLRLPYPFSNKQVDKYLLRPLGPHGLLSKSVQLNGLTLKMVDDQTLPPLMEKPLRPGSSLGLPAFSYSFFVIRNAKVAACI
T2 sequence (Q9Y251 36-109 limits assumed): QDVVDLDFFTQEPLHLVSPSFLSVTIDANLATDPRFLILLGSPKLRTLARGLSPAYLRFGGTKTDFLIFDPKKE
Description: Briefly, to an incubation mixture of […] containing ^3H-radiolabelled porcine mucosal HS […], 50 mM-sodium acetate buffer, pH 5.0, […] bovine serum albumin and the inhibitor to be tested, was added 10 ng of purified human platelet heparanase and the mixture incubated for 30 min. The reaction was terminated by freezing the assay tubes. The substrate was separated from the cleavage products on minicolumns of sepharose-bound histidine-rich glycoprotein (Freeman, C., and Parish, C. R. [1997], supra).
Inhibitory activity is based on a comparison with heparin with 100% inhibition at 30 μg/ml. The compounds were also tested at the same purity as in Example 15.

bFGF = bFGF (Homo sapiens, UniProt P09038); assay: Biacore biosensor: inhibition of bFGF binding to immobilised heparin and heparan sulfate; conditions: for Inhibition of binding of bFGF (HS) / Inhibition of binding of bFGF (Hep): inhibitor 0.034 μM, bFGF 0.034 μM
bFGF, sequence (P09038 134-288 limits assumed, species assumed): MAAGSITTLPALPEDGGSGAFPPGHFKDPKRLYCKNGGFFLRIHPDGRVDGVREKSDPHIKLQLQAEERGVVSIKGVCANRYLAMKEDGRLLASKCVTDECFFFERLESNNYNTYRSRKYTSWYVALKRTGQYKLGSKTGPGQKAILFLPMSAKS
Description: (§1) Assays were performed using a Biacore™ 2000 optical biosensor obtained from Biacore AB, Uppsala, Sweden. The biosensor was operated in accordance with the manufacturer's instructions. Briefly, neutravidin was covalently coupled to the surface of CM5 chips of the biosensor and then either biotinylated heparin (1 μg/ml) or biotinylated heparan sulfate ([…]) bound to the immobilised neutravidin. Mixtures of a test compound and a growth factor or other effector compound were preincubated for 2 to 5 minutes and the mixtures then added to individual biosensor cuvettes. Binding of growth factor or effector compound to the heparin or heparan sulfate was then monitored for approximately 5 minutes with the biosensor.
(§2) The tabulated values are the IC50 in μM or % inhibition of binding of the growth factor to the immobilised heparan sulfate (HS) or heparin.

aFGF = aFGF (Homo sapiens, UniProt P05230); assay: Biacore biosensor: inhibition of aFGF binding to immobilised heparin and heparan sulfate; conditions: inhibitor 0.034 μM, aFGF 0.025 μM; for Inhibition of binding of aFGF (HS): immobilised heparan sulfate; for Inhibition of binding of aFGF (Hep): immobilised heparin
aFGF, sequence (P05230 whole entry, species assumed): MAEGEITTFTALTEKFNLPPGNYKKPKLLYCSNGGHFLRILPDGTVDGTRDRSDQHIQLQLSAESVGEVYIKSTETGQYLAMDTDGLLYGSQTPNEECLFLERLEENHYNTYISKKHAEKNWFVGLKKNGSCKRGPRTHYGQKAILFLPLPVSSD
Description: as §1, §2

VEGF = molecular target: T3, VEGF (Homo sapiens, UniProt P15692); assay: Biacore biosensor: inhibition of VEGF binding to immobilised heparin and heparan sulfate; conditions: inhibitor 0.034 μM, VEGF 0.025 μM; for Inhibition of binding of VEGF (HS): immobilised heparan sulfate; for Inhibition of binding of VEGF (Hep): immobilised heparin
T3 sequence (P15692 27-191 isoform P15692-4): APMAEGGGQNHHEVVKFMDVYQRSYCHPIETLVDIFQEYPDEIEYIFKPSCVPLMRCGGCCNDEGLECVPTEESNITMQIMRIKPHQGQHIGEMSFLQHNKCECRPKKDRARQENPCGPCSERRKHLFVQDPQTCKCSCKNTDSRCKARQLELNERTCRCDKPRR
Description: as §1, §2

IL-8 = molecular target: T4, IL-8 (Homo sapiens, UniProt P10145); assay: Biacore biosensor: inhibition of IL-8 binding to immobilised heparin and heparan sulfate; conditions: inhibitor 1.0 μM, IL-8 0.068 μM; for Inhibition of binding of IL-8 (HS): immobilised heparan sulfate; for Inhibition of binding of IL-8 (Hep): immobilised heparin
T4 sequence (P10145 21-99): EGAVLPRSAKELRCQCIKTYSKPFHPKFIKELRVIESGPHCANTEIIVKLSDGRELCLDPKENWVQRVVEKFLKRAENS
Description: as §1

rat aorta fragments = assay: In vitro angiogenesis inhibition assay; assay type: cell-based; conditions: control 90
Description: The ability of linked cyclitol compounds to inhibit angiogenesis in vitro was conducted using the assay essentially as described in the present applicant's International Patent Application No. PCT/AU95/00105 (Publication No. WO 95/23968), the entire content of which is incorporated herein by cross reference. The only changes to the procedure described in PCT/AU95/00105 were that the assays were conducted using rat aorta fragments rather than human placental vessel fragments.
All potential inhibitors were tested at 100 μg/ml with PI-88 also being tested at 10 μg/ml. The tabulated data represent means of 4 culture wells for each experiment. Significant inhibition of angiogenesis is indicated with a single asterisk while double asterisks denote highly significant inhibition.
The compounds were also tested at the same purity as in Example 15 save that the second entries for 4b and 4j relate to data obtained with higher purity compounds than the compounds used for the first data entries of each.

[3] = inhibitor 100 μg/ml, means of 4 culture wells per experiment, * significant, ** highly significant inhibition
[4] = immobilised heparan sulfate, read-out: IC50, inhibition of bFGF binding (HS)
[5] = immobilised heparin, read-out: IC50, inhibition of bFGF binding (Hep)

| Molecule | Amount for 50% inhibition [1] | Relative inhibition (%) [2] | EC50 [2] | Inhibition of binding of bFGF (HS) (bFGF; immobilised heparan sulfate) | Inhibition of binding of bFGF (Hep) (bFGF; immobilised heparin) | Inhibition of binding of aFGF (HS) (aFGF) | Inhibition of binding of aFGF (Hep) (aFGF) | Inhibition of binding of VEGF (HS) (VEGF) | Inhibition of binding of VEGF (Hep) (VEGF) | Inhibition of binding of IL-8 (HS) (IL-8) | Inhibition of binding of IL-8 (Hep) (IL-8) | pIC50 (bFGF; [4]) | pIC50 (bFGF; [5]) | Inhibition (%) at 10 μg/ml ([2]; 10 μg/ml) | % Growth (rat aorta fragments; [3]) | % Growth (rat aorta fragments; inhibitor 100 μg/ml, second entry, higher purity compound, * significant inhibition) | % Growth (rat aorta fragments; inhibitor 10 μg/ml, * significant inhibition) |
| --- | --- | --- | --- | --- | --- | --- | --- | --- | --- | --- | --- | --- | --- | --- | --- | --- | --- |
| O=S(=O)(O)OC1C=CC(N(CCCCCCN(C2C=CC(OS(=O)(=O)O)C(OS(=O)(=O)O)C2OS(=O)(=O)O)C2C=CC(OS(=O)(=O)O)C(OS(=O)(=O)O)C2OS(=O)(=O)O)C2C=CC(OS(=O)(=O)O)C(OS(=O)(=O)O)C2OS(=O)(=O)O)C(OS(=O)(=O)O)C1OS(=O)(=O)O (centres unmarked) [Compound 4b] | 0.22 µg/mL | 45% | 40 µg/mL (≈ 25.2 µM) | 48% (HS) | 52% (Hep) | 47% (HS) | 44% (Hep) | 32% (HS) | 45% (Hep) | 48% (HS) | 55% (Hep) |  |  |  | 70% | 65* % |  |
| O=S(=O)(O)OC1C=CC(N(Cc2cccc(CN(C3C=CC(OS(=O)(=O)O)C(OS(=O)(=O)O)C3OS(=O)(=O)O)C3C=CC(OS(=O)(=O)O)C(OS(=O)(=O)O)C3OS(=O)(=O)O)c2)C2C=CC(OS(=O)(=O)O)C(OS(=O)(=O)O)C2OS(=O)(=O)O)C(OS(=O)(=O)O)C1OS(=O)(=O)O (centres unmarked) [Compound 4d] | 0.43 µg/mL | 75% | 15 µg/mL (≈ 9.32 µM) | 68% (HS) | 52% (Hep) | 65% (HS) | 65% (Hep) | 40% (HS) | 44% (Hep) | 50% (HS) | 57% (Hep) | 7.64 | 7.49 |  | 67% |  |  |
| O=S(=O)(O)OC1C=CC(N(Cc2ccc(CN(C3C=CC(OS(=O)(=O)O)C(OS(=O)(=O)O)C3OS(=O)(=O)O)C3C=CC(OS(=O)(=O)O)C(OS(=O)(=O)O)C3OS(=O)(=O)O)cc2)C2C=CC(OS(=O)(=O)O)C(OS(=O)(=O)O)C2OS(=O)(=O)O)C(OS(=O)(=O)O)C1OS(=O)(=O)O (centres unmarked) [Compound 4e] | 0.30 µg/mL | 70% | 9 µg/mL (≈ 5.59 µM) | 61% (HS) | 49% (Hep) | 63% (HS) | 66% (Hep) | 51% (HS) | 63% (Hep) | 65% (HS) | 62% (Hep) |  |  |  | 55* % |  |  |
| O=S(=O)(O)OC1C(OS(=O)(=O)O)C(OS(=O)(=O)O)C(N(Cc2ccc(CN(C3C(OS(=O)(=O)O)C(OS(=O)(=O)O)C(OS(=O)(=O)O)C(OS(=O)(=O)O)C3OS(=O)(=O)O)C3C(OS(=O)(=O)O)C(OS(=O)(=O)O)C(OS(=O)(=O)O)C(OS(=O)(=O)O)C3OS(=O)(=O)O)cc2)C2C(OS(=O)(=O)O)C(OS(=O)(=O)O)C(OS(=O)(=O)O)C(OS(=O)(=O)O)C2OS(=O)(=O)O)C(OS(=O)(=O)O)C1OS(=O)(=O)O (centres unmarked) [Compound 5e] |  |  |  |  |  |  |  |  |  |  |  |  |  |  | 60* % |  |  |

More lines, main results first:

| Amount for 50% inhibition [1] | Relative inhibition (%) [2] | EC50 [2] | Inhibition of binding of bFGF (HS) (bFGF; immobilised heparan sulfate) | Inhibition of binding of bFGF (Hep) (bFGF; immobilised heparin) | Inhibition of binding of aFGF (HS) (aFGF) | Inhibition of binding of aFGF (Hep) (aFGF) | Inhibition of binding of VEGF (HS) (VEGF) | Inhibition of binding of VEGF (Hep) (VEGF) | Inhibition of binding of IL-8 (HS) (IL-8) | Inhibition of binding of IL-8 (Hep) (IL-8) | pIC50 (bFGF; [4]) | pIC50 (bFGF; [5]) | Inhibition (%) at 10 μg/ml ([2]; 10 μg/ml) | Molecule | % Growth (rat aorta fragments; [3]) | % Growth (rat aorta fragments; inhibitor 100 μg/ml, second entry, higher purity compound, * significant inhibition) | % Growth (rat aorta fragments; inhibitor 10 μg/ml, * significant inhibition) |
| --- | --- | --- | --- | --- | --- | --- | --- | --- | --- | --- | --- | --- | --- | --- | --- | --- | --- |
| 0.53 µg/mL | 100% | 6 µg/mL (≈ 2.51 µM) | 48% (HS) | 35% (Hep) | 67% (HS) | 72% (Hep) | 39% (HS) | 54% (Hep) | 62% (HS) | 71% (Hep) | 7.42 | 6.80 |  | O=S(=O)(O)OC1C(OS(=O)(=O)O)C(OS(=O)(=O)O)C(N(Cc2cccc(CN(C3C(OS(=O)(=O)O)C(OS(=O)(=O)O)C(OS(=O)(=O)O)C(OS(=O)(=O)O)C3OS(=O)(=O)O)C3C(OS(=O)(=O)O)C(OS(=O)(=O)O)C(OS(=O)(=O)O)C(OS(=O)(=O)O)C3OS(=O)(=O)O)c2)C2C(OS(=O)(=O)O)C(OS(=O)(=O)O)C(OS(=O)(=O)O)C(OS(=O)(=O)O)C2OS(=O)(=O)O)C(OS(=O)(=O)O)C1OS(=O)(=O)O (centres unmarked) [Compound 5d] |  |  |  |
|  | 100% | 2.9 µg/mL | 56% (HS) | 50% (Hep) | 33% (HS) | 96% (Hep) | 65% (HS) | 29% (Hep) | 0% | 10% | 7.60 | 7.47 | 90% | phosphomannopentaose sulfate [PI-88, reference compound] | 45** % |  | 64* % |
